In PMC12169609, “Efficient Crystallization of Apo Sirt2 for Small-Molecule Soaking and Structural Analysis of Ligand Interactions” (Journal of Medicinal Chemistry, 2025):

Assays:
Sirt2 = conditions: published Sirt2 inhibitors; no assay or reference printed at the place; cited from earlier work
Sirt2_56–356 [1] = target: T1, Sirt2_56–356 (Homo sapiens, UniProt Q8IXJ6); experiment: Fluorescence polarization assay (FPA), displacement of SirReal-TAMRA probe; type: binding; conditions: for FP-Assay Inhibition (%) at 125 µM / inhibition at 125 µM: 125 µM compound; for FP-Assay Inhibition (%) at 500 µM / inhibition at 500 µM: 500 µM compound; for FP-Assay Inhibition (%) at 2000 µM / inhibition at 2000 µM: 2000 µM compound; for IC50: 200 nM Sirt2, 40 nM SirReal-TAMRA, 5% DMSO; for inhibition at 125 µM: read-out: FP-Assay Inhibition (%) at 125 µM; for inhibition at 500 µM: read-out: FP-Assay Inhibition (%) at 500 µM; for inhibition at 2000 µM: read-out: FP-Assay Inhibition (%) at 2000 µM
T1 construct: human strep-tagged Sirt2_56–356 was expressed and purified; strep-tag; made in house
T1 sequence (Q8IXJ6 56-356): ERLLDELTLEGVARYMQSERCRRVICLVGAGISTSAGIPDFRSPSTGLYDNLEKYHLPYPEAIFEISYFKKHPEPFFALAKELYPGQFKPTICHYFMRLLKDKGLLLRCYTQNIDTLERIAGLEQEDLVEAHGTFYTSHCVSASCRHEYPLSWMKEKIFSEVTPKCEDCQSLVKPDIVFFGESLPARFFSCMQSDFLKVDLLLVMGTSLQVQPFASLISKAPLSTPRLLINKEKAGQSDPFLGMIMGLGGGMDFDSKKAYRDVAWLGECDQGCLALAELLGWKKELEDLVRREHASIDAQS
Protocol: Blank controls contained 19 μL of assay buffer and 1 μL DMSO. Negative controls (P neg) used 1 μL Mz242 (20 μM final concentration), while positive controls (Ppos) replaced the inhibitor with 1 μL DMSO. […] Fluorescence intensities were measured with an EnVision plate reader (PerkinElmer, optical module – BODIPY TMR FP, excitation filter – FP 531 nm, emission filter 1 – FP p-pol 595 nm, emission filter 2 – FP s-pol 595 nm). Inhibition was calculated using the equation reported below (P I, P neg, and P pos are FP values of samples, […], respectively). I=100×(1−(PI−Pneg/Ppos−Pneg))%

Sirt2_56–356 [2] = target: T1, Sirt2_56–356; experiment: Fluorescence thermal shift assay (DSF); type: binding; conditions: 6.0 μM Sirt2; for FTS-Assay Thermal shift at 1000 µM / ΔTm at 1000 µM: 1000 µM compound; for ΔTm at 1000 µM: read-out: FTS-Assay Thermal shift at 1000 µM
Protocol: Fluorescence thermal shift assays were performed in white 96-well plates (Hard-Shell PCR Plates, BioRad, USA) with a total volume of 20 μL and a final DMSO concentration of 5% (v/v), following a published protocol. ,
Melting temperatures were determined using GraphPad Prism, following a published procedure.

[3] = Precipitation observed in the FP assay IC50 determination; type: physicochemical; conditions: FP assay buffer, 5% DMSO
Excerpt: Figure S3: (A) Superimposition of Sirt2 apo (salmon, PDB 9FDR) with Sirt2-Mz242 (Sirt2 = yellow-orange, Mz242 = yellow, PDB 8OWZ).4 All amino acids that are involved in the formation of the selectivity pocket align very well. However, Phe96 and Arg97 from the cofactor binding loop show a different orientation, resulting from the presence or absence of Mz242. (B) Superimposition of Sirt2-KT9 (Sirt2 = wheat, KT9 = firebrick, PDB 9FDX) with NAD+ (gray) from PDB 4RMG. In the presented KT9 orientation, the close distance of the amide C=O of KT9 and the ribose moiety of NAD+ (highlighted as black circle) would result in steric clashes that prevent simultaneous binding.
Figure S4: IC50 curves of compounds 1-3 in a previously reported Sirt2 binding assay based on fluorescence polarization.5 At concentrations exceeding 1000 µM, 1 started to precipitate, thus limiting the maximum inhibition to 70%. […]

| Structure (SMILES) | FP-Assay Inhibition (%) at 125 µM (Sirt2_56–356 [1]) [%] | FP-Assay Inhibition (%) at 500 µM (Sirt2_56–356 [1]) [%] | FP-Assay Inhibition (%) at 2000 µM (Sirt2_56–356 [1]) [%] | FTS-Assay Thermal shift at 1000 µM (Sirt2_56–356 [2]) [°C] | FTS-Assay Thermal shift at 2000 µM (Sirt2_56–356 [2]; 2000 µM compound) [°C] | also measured |
| --- | --- | --- | --- | --- | --- | --- |
| COCCn1cc(COc2cccc(Cc3cnc(NC(=O)CSc4nc(C)cc(C)n4)s3)c2)nn1 [Mz242] |  |  |  |  |  | IC50 (Sirt2): 0.12 µM |
| CC(=O)Nc1ccc2c(c1)CCC2 [No. 4] | 32.8 ± 4.3 | 61.1 ± 6.5 | 78.5 ± 7.5 | 1.1 | 0.1 |  |
| CN(C(=O)c1cccs1)C1CC2CCC1C2 (stereo not shown) [No. 5] | -7.4 ± 8.3 | 10.3 ± 6.0 | 43.8 ± 10.1 | 0.5 | 0.7 |  |
| CC1Sc2ccccc2NC(=O)C1C (stereo not shown) [No. 6] | 20.2 ± 2.9 | 59.9 ± 7.9 | 101.0 ± 4.7 | 1.5 |  |  |
| COC(=O)c1sccc1-n1cccc1 [No. 7] | 11.5 ± 5.5 | 46.9 ± 4.3 | 76.2 ± 1.8 | 0.8 | 0.5 |  |
| C#Cc1ccc(-c2cnco2)cc1 [No. 8] | 19.1 ± 4.6 | 61.2 ± 3.3 |  | 0.9 | 0.0 |  |
| N#CCOc1cc(Cl)cc(Cl)c1 [No. 10] | 19.3 ± 10.5 | 53.9 ± 8.2 | 90.3 ± 14.7 | 0.7 |  |  |
| Nc1ccccc1-c1cccs1 [No. 12] | 33.2 ± 10.3 | 66.4 ± 3.2 | 104.2 ± 3.2 |  | 0.0 |  |
| CNCc1ccc(N2CCOCC2)s1 [No. 13] | 19.9 ± 3.1 | 49.3 ± 4.1 | 95.1 ± 3.5 |  |  |  |
| c1ccc2c(CN3CCOCC3)csc2c1 [No. 14] | 24.3 ± 3.5 | 42.5 ± 2.9 | 91.9 ± 13.9 | 1.3 | 0.7 |  |
| Clc1ccc2ncccc2c1 [No. 15] | 6.3 ± 7.4 | 36.2 ± 6.5 | 87.3 ± 6.8 | 0.7 | 0.2 |  |
| CCOC(=O)Cc1ccc(OC)cc1 [No. 16] | 23.1 ± 3.9 | 50.5 ± 5.4 |  | 0.5 | 0.4 |  |
| CCOC(=O)Cc1cccc(Cl)c1 [No. 17] | 24.7 ± 4.0 | 63.8 ± 2.4 | 99.7 ± 4.6 | 0.9 | 0.9 |  |
| Cc1ccc(=O)n(Cc2ccc(Cl)cc2)n1 [No. 18] | 11.3 ± 3.2 | 41.9 ± 7.0 | 90.8 ± 2.8 | 1.3 | 0.1 |  |
| CC1(C)CC(=O)c2c(SCCO)sc(C#N)c2C1 [No. 19] | 8.2 ± 4.9 | 40.9 ± 5.6 | 91.5 ± 1.7 |  |  |  |
| Nc1nc(-c2ccc(F)c(F)c2)cs1 [No. 20] | -0.9 ± 6.3 | 38.8 ± 4.6 | 91.3 ± 3.2 |  | 0.0 |  |
| CCOC(=O)c1cccc(-c2nccs2)c1 [No. 21] | 41.8 ± 5.9 | 91.4 ± 2.5 | 97.0 ± 6.2 | 0.9 |  |  |
| CC(=O)c1c(O)cccc1OCCC(C)C [No. 22] | 57.6 ± 7.3 | 74.2 ± 4.2 | 56.5 ± 2.8 | 1.9 | 1.6 |  |
| NC(=S)c1ccc(OCC(F)(F)F)nc1 [compound 1] |  |  |  |  |  | IC50 (Sirt2_56–356 [1]): 286 ± 10 µM; inhibition at 125 µM (Sirt2_56–356 [1]): 26.5 ± 5.8%; inhibition at 500 µM (Sirt2_56–356 [1]): 55.4 ± 4.3%; inhibition at 2000 µM (Sirt2_56–356 [1]): 74.2 ± 3.1%; ΔTm at 1000 µM (Sirt2_56–356 [2]): 0.3 °C; ΔTm at 2000 µM (Sirt2_56–356 [2]; 2000 µM compound, read-out: FTS-Assay Thermal shift at 2000 µM): 0.6 °C; concentration above which compound started to precipitate [3]: exceeding 1000 µM |
| O=C(NCc1ccccn1)c1cccc(Cl)c1 [compound 3] |  |  |  |  |  | IC50 (Sirt2_56–356 [1]): 565 ± 95 µM; inhibition at 125 µM (Sirt2_56–356 [1]): 15.1 ± 7.7%; inhibition at 500 µM (Sirt2_56–356 [1]): 46.9 ± 9.3%; inhibition at 2000 µM (Sirt2_56–356 [1]): 94.8 ± 3.4%; ΔTm at 1000 µM (Sirt2_56–356 [2]): 0.5 °C |
